The values that follow come from patent publication US10479766B2, “Deuterated CFTR potentiators” (Vertex Pharmaceuticals (Europe) Limited, priority 2011, dated 2019).

Series [1] in a line: Pharmacokinetics in rats after oral gavage. It is filed as in vivo. The settings on record: rat, PO 10 mg/kg in 100% PEG400, plasma; for half-life: plasma, po, 10 mg/kg. Here is the method: Ivacaftor, compound 105 and compound 106 were discrete dosed to rats via oral gavage (PO). Each compound was administered at a dose of 10 mg/kg to three rats (N=3 rats/compound; total of 9 rats in the study). […] Blood samples were centrifuged to obtain plasma. Plasma samples were analyzed for concentrations of the dosed compound at each time point using LC-MS/MS. The limit of quantitation of each compound was 1 ng/mL.

The test system of series [2] is patients with cystic fibrosis carrying at least one copy of the G551D-CFTR mutation. The following applies: phase III trials; cited from earlier work.
[3] abbreviates: individual animals, read-out: t1/2 (hr), individual animal (converted).
[4] abbreviates: mean of N=3 rats, read-out: t1/2 (hr), Mean (converted).

“And” between values parts separate entries of the source, which are not always exact repeats. Equal values may be shown once. Read-outs that look alike come from different tables or passages of the source.

With `[2H]C([2H])([2H])C(c1cc(C(C)(C)C)c(NC(=O)c2c[nH]c3ccccc3c2=O)cc1O)(C([2H])([2H])[2H])C([2H])([2H])[2H]` [Compound 106, N-(2-(tert-Butyl)-4-(tert-butyl-d9)-5-hydroxyphenyl)-4-oxo-1,4-dihydroquinoline-3-carboxamide], in series [1] (individual animals), the “t1/2 (hr), individual animal” value is 14.28 h and 11.92 h. For the same compound, the half-life in series [1] (setting [3]) is 13.5 h; in series [1] (setting [4]), 13.2 h.
Consider `[2H]C([2H])([2H])C(c1cc(C(C([2H])([2H])[2H])(C([2H])([2H])[2H])C([2H])([2H])[2H])c(NC(=O)c2c[nH]c3ccccc3c2=O)cc1O)(C([2H])([2H])[2H])C([2H])([2H])[2H]` [Compound 105, N-(2,4-Di-(tert-butyl-d9)-5-hydroxyphenyl)-4-oxo-1,4-dihydroquinoline-3-carboxamide], for which the “t1/2 (hr), individual animal” value in series [1] (individual animals) was 16.33 h and 14.39 h. Also, the half-life in series [1] (setting [3]) was 13.8 h; in series [1] (setting [4]), 14.8 h.
In the case of `CC(C)(C)c1cc(C(C)(C)C)c(NC(=O)c2c[nH]c3ccccc3c2=O)cc1O` [Ivacaftor, N-(2,4-di-tert-butyl-5-hydroxyphenyl)-4-oxo-1,4-dihydroquinoline-3-carboxamide, reference compound], the “t1/2 (hr), individual animal” value in series [1] (individual animals) is 12.43 h and 10.01 h. Moreover, the values for the half-life in series [1] (setting [3]) and in series [1] (setting [4]) were 9.03 h and 10.5 h, respectively. For the same compound, the “lung function and other key indicators of the disease (sweat chloride levels, likelihood of pulmonary exacerbations, body weight)” value in series [2] is “marked levels of improvement”.
